# Measured values as given in ChEMBL document CHEMBL1156829 (Proc Natl Acad Sci U S A, 2008).
# pEC50: −log10 of the molar value.
# Key:
# Plasmodium falciparum [1] = assay: NOVARTIS: Inhibition of Plasmodium falciparum 3D7 (drug-susceptible) proliferation in erythrocyte-based infection assay; format: functional, organism-based; details: Plasmodium falciparum, 3D7
# Plasmodium falciparum [2] = assay: NOVARTIS: Inhibition of Plasmodium falciparum W2 (drug-resistant) proliferation in erythrocyte-based infection assay; format: functional, organism-based; details: Plasmodium falciparum, W2; read-out: EC50
# [3] = NOVARTIS: Cytotoxicity against human hepatocellular carcinoma cell line (Huh7); format: toxicity, cell-based, Huh-7; details: Huh7 cells (hepatocellular carcinoma cell line)
smiles,measurement,setting,value
Clc1ccc(Nc2nc3nonc3nc2Nc2ccc(Cl)c(Cl)c2)cc1Cl,pEC50,Plasmodium falciparum [1],< 4.90
same,pEC50,Plasmodium falciparum [2],5.03
same,CC50,[3],48.7 µM
CC[C@H]1CN2CCc3cc(OC)c(OC)cc3[C@@H]2C[C@@H]1C[C@@H]1NCCc2cc(OC)c(OC)cc21,pEC50,Plasmodium falciparum [1],7.97
same,pEC50,Plasmodium falciparum [2],7.64
same,CC50,[3],0.0822 µM
Cc1ncc([N+](=O)[O-])n1CCOC(=O)c1c(NC(=O)c2ccccc2)sc2c1CCCC2,pEC50,Plasmodium falciparum [1],5.58
same,pEC50,Plasmodium falciparum [2],5.70
same,CC50,[3],> 100 µM
Cc1ccc(N2CCN(CCNCc3ccc(F)cc3)[C@@H](Cc3ccc(O)cc3)C2)cc1,pEC50,Plasmodium falciparum [1],6.35
same,pEC50,Plasmodium falciparum [2],6.62
same,CC50,[3],> 10 µM
Cc1cc(N2CCCC2)nc2ccc(NC(=S)NCCCN3CCN(Cc4ccccc4)CC3)cc12,pEC50,Plasmodium falciparum [1],6.93
same,pEC50,Plasmodium falciparum [2],6.18
same,CC50,[3],55.5 µM
COCCNC(=O)c1ccc(OC2CCN(CC(c3ccccc3)c3ccccc3)CC2)c(OC)c1,pEC50,Plasmodium falciparum [1],6.52
same,pEC50,Plasmodium falciparum [2],7.13
same,CC50,[3],> 76.7 µM
CCOc1ccc(NC(=O)c2ccc(F)c(S(=O)(=O)NC3CCCC(C)C3C)c2)cc1 (centres undefined),pEC50,Plasmodium falciparum [1],5.98
same,pEC50,Plasmodium falciparum [2],6.75
same,CC50,[3],32.2 µM
O=C(CCC1CCCC1)NCCCCNc1ccnc2cc(Cl)ccc12,pEC50,Plasmodium falciparum [1],6.31
same,pEC50,Plasmodium falciparum [2],6.76
same,CC50,[3],2.27 µM
O=C1c2ccc3c4c(ccc(c24)C(=O)N1CCCCO)C(=O)N(CCCCO)C3=O,pEC50,Plasmodium falciparum [1],6.45
same,pEC50,Plasmodium falciparum [2],7.11
same,CC50,[3],4.38 µM
CCN(CC)CCN1C(=O)c2ccccc2NC1c1ccc(N(C)C)cc1 (centres undefined),pEC50,Plasmodium falciparum [1],6.55
same,pEC50,Plasmodium falciparum [2],6.80
same,CC50,[3],> 100 µM
O=C(COc1cccc(Cl)c1)Nc1nccs1,pEC50,Plasmodium falciparum [1],< 4.90
same,pEC50,Plasmodium falciparum [2],< 5.03
same,CC50,[3],> 100 µM
O=C(c1ccccc1)N1CCN(CC(O)COCc2ccccc2)CC1 (centres undefined),pEC50,Plasmodium falciparum [1],< 5.90
same,pEC50,Plasmodium falciparum [2],6.21
same,CC50,[3],> 10 µM
COc1ccc(-c2noc(-c3cccc(I)c3)n2)cc1OC,pEC50,Plasmodium falciparum [1],< 5.76
same,pEC50,Plasmodium falciparum [2],< 6.06
same,CC50,[3],> 13.6 µM
Clc1ccc(NCn2nnc3ccccc32)nc1,pEC50,Plasmodium falciparum [1],< 5.09
same,pEC50,Plasmodium falciparum [2],5.77
same,CC50,[3],> 100 µM
N#Cc1c(N)n(CCc2ccc(Cl)cc2Cl)c2nc3ccccc3nc12,pEC50,Plasmodium falciparum [1],6.08
same,pEC50,Plasmodium falciparum [2],6.31
same,CC50,[3],33.4 µM
CCCCSCC(O)CN1CCCCC1 (centres undefined),pEC50,Plasmodium falciparum [1],5.28
same,pEC50,Plasmodium falciparum [2],6.27
same,CC50,[3],> 100 µM
CCC(=O)Oc1ccccc1-c1nc2ccccn2c1NC(C)(C)CC(C)(C)C,pEC50,Plasmodium falciparum [1],6.13
same,pEC50,Plasmodium falciparum [2],7.46
same,CC50,[3],1.65 µM
CCCCCc1ccc(C(=O)N(CCCC(C)Nc2cc(OC)cc3cccnc23)Cc2ccc(OC)c(OC)c2)cc1 (centres undefined),pEC50,Plasmodium falciparum [1],6.29
same,pEC50,Plasmodium falciparum [2],6.55
same,CC50,[3],5.03 µM
CCCC(=O)Oc1ccccc1-c1nc2ccccn2c1NC(C)(C)CC(C)(C)C,pEC50,Plasmodium falciparum [1],6.10
same,pEC50,Plasmodium falciparum [2],7.36
same,CC50,[3],1.96 µM
CC(C)CNC(=O)c1cnc(NCCCn2ccnc2)nc1NCC1CCCCC1,pEC50,Plasmodium falciparum [1],6.56
same,pEC50,Plasmodium falciparum [2],6.42
same,CC50,[3],> 10 µM
COc1cc(C=CC(=O)Nc2ccc3nc(N4CCN(c5ncccn5)CC4)cc(C)c3c2)cc(OC)c1OC,pEC50,Plasmodium falciparum [1],6.08
same,pEC50,Plasmodium falciparum [2],6.30
same,CC50,[3],7.42 µM
COc1ccccc1Cn1c(SCC(=O)Nc2cccc(C(F)(F)F)c2)nc2ccc(Br)cc2c1=O,pEC50,Plasmodium falciparum [1],6.13
same,pEC50,Plasmodium falciparum [2],6.08
same,CC50,[3],> 100 µM
CCOC(=O)c1cnc2ccc(OCC)cc2c1NCCCN(CC)CC,pEC50,Plasmodium falciparum [1],6.93
same,pEC50,Plasmodium falciparum [2],6.85
same,CC50,[3],70.1 µM
Cc1n(C)c2ccccc2[n+]1CC(=O)c1ccccc1,pEC50,Plasmodium falciparum [1],6.95
same,pEC50,Plasmodium falciparum [2],6.26
same,CC50,[3],> 100 µM
O=C(Oc1ccccc1-c1nc2ccccn2c1NC1CCCCC1)c1ccc([N+](=O)[O-])cc1Cl,pEC50,Plasmodium falciparum [1],< 5.90
same,pEC50,Plasmodium falciparum [2],6.45
same,CC50,[3],> 10 µM
N=c1c2c(n(CCc3ccccc3)c3c1CCC3)CCCC2,pEC50,Plasmodium falciparum [1],7.23
same,pEC50,Plasmodium falciparum [2],6.63
same,CC50,[3],15.3 µM
OC(CN1CCN(CC(O)Cn2c3ccccc3c3cc(Br)ccc32)CC1)Cn1c2ccccc2c2ccccc21 (centres undefined),pEC50,Plasmodium falciparum [1],< 5.90
same,pEC50,Plasmodium falciparum [2],6.24
same,CC50,[3],> 10 µM
COc1ccc(-n2nc(C(C)(C)C)cc2NC(=O)CN(C(=O)c2ccc(C)c([N+](=O)[O-])c2)C(C)C)cc1,pEC50,Plasmodium falciparum [1],5.81
same,pEC50,Plasmodium falciparum [2],5.74
same,CC50,[3],31.1 µM
